Usually IC50 stands for the concentration at which inhibition is half-maximal.

Assay [1] addresses T1, human PI3Kδ enzyme (Homo sapiens, UniProt O00329).
T1 construct: purchased Millipore Corporation 14-604
The experiment in a line: PI3Kδ enzyme inhibitory activity (PI3-Kinase HTRF Assay kit). It counts as biochemical. Particulars: human PI3Kδ 10 ng/well, ATP 30 μM, PIP2 10 μM, room temperature 30 minutes. How it is done: 1. PI3Kδ Enzyme Inhibitory Activity
For the experiment, a PI3-Kinase HTRF Assay kit (Millipore Corporation, Catalogue No. 33-016) and a human PI3Kδ enzyme (Millipore Corporation, Catalogue No. 14-604) were used. The measurement method was in accordance with the appended instructions. The overview thereof is as follows.
PI3Kδ (10 ng/well), phosphatidylinositol-4,5-bisphosphate (10 μM), ATP (30 μM), and the test compound were mixed in a 384-well plate (total 20 μL), and incubated at room temperature for 30 minutes. EDTA and biotinylated phosphatidylinositol-3,4,5-triphosphate were added thereto to stop the reaction. Thereafter, a Europium labeled anti-GST antibody, a GST bond GRP1 PH domain, and streptavidin-APC were added thereto, followed by incubation overnight. An HTRF ratio was measured using an HTRF plate reader. The IC50 value of the compound was calculated, taking the inhibition rate without addition of the enzyme as 100% and the inhibition rate without addition of the test compound as 0%, by means of a logistic method.
(§1) In the Table, Ex represents Example Compound No. as described later, PI3Kδ represents the IC50 value (nM) of a PI3Kδ enzyme inhibitory activity, and PI3Kα represents the IC50 value (nM) of a PI3Kα enzyme inhibitory activity.
Background: Time-resolved FRET reads energy transfer from a long-lived donor to a nearby acceptor.

The target in assay [2] is T2, Human PI3Kα (Homo sapiens, UniProt P42336).
T2 construct: purchased Millipore Corporation 14-602
As to the kind of experiment: PI3Kα enzyme inhibitory activity (Kinase-Glo Plus luminescence). It counts as biochemical. Particulars: Human PI3Kα 12 ng/well, phosphatidylinositol 0.2 μg/well, 37° C. for 3 hours. How it is done: 2. PI3Kα Enzyme Inhibitory Activity
Human PI3Kα (12 ng/well, Millipore Corporation, Catalogue No. 14-602), phosphatidylinositol (0.2 μg/well), and the test compound were mixed in a 384-well plate in a reaction buffer (50 mM Hepes, 10 mM NaCl, 10 mM MgCl2, 2 mM EGTA, 2 mM DTT, pH 7.3) (total 10 μl), and incubated at 37° C. for 3 hours. After the reaction, 10 μL of a Kinase-Glo Plus reagent (Promega, Catalogue No. V3772) was added thereto, and a luminescence was measured with a luminometer. The IC50 value of the compound was calculated, taking the inhibition rate without addition of the enzyme as 100% and the inhibition rate without addition of the test compound as 0%, by a logistic method.
as §1
On the technique in general: Kinase-Glo measures the ATP left after a reaction by luminescence.

Assay [3] deals with Spleen cells (B cell proliferation). The experiment in a line: Rat B cell proliferation inhibition test (anti-rat IgM, [3H]thymidine). It counts as cell-based. The note with it: anti-rat IgM 3 μg/well, 48 hours culture, [3H]thymidine uptake. How it is done:
4. Rat B Cell Proliferation Inhibition Test
Spleen cells (1.0×10^5 cells/well) prepared from male LEW/CrlCrlj rats (Charles River Laboratories, Japan, Inc.), mouse F(ab′)2 fragment anti-rat IgM (3 μg/well, SouthernBiotech Associates, Inc., Catalogue No. 3082-14) and the test compound dissolved in DMSO (final DMSO concentration 0.1%) were mixed in a 96-well plate using a 10% FCS-containing RPMI-1640 culture medium (total 200 μL). They were cultured in a CO2 incubator for 48 hours and [^3H]thymidine (925 GBq/mmol, Moravek Biochemicals, Inc., Catalogue No. MT6038) was added thereto at 0.037 MBq/well at 4 hours before completion of culture. Cells were harvested in a GF/C glass filter using a cell harvester, and a radioactivity on the filter was measured using a liquid scintillation counter. The IC50 value of the compound was calculated, taking the dpm (disintegration per minute) without addition of IgM as an inhibition rate of 100% and the dpm without addition of the test compound as an inhibition rate of 0%, by a logistic method.

Molecules are shown by their SMILES.

T1 sequence (O00329 whole entry): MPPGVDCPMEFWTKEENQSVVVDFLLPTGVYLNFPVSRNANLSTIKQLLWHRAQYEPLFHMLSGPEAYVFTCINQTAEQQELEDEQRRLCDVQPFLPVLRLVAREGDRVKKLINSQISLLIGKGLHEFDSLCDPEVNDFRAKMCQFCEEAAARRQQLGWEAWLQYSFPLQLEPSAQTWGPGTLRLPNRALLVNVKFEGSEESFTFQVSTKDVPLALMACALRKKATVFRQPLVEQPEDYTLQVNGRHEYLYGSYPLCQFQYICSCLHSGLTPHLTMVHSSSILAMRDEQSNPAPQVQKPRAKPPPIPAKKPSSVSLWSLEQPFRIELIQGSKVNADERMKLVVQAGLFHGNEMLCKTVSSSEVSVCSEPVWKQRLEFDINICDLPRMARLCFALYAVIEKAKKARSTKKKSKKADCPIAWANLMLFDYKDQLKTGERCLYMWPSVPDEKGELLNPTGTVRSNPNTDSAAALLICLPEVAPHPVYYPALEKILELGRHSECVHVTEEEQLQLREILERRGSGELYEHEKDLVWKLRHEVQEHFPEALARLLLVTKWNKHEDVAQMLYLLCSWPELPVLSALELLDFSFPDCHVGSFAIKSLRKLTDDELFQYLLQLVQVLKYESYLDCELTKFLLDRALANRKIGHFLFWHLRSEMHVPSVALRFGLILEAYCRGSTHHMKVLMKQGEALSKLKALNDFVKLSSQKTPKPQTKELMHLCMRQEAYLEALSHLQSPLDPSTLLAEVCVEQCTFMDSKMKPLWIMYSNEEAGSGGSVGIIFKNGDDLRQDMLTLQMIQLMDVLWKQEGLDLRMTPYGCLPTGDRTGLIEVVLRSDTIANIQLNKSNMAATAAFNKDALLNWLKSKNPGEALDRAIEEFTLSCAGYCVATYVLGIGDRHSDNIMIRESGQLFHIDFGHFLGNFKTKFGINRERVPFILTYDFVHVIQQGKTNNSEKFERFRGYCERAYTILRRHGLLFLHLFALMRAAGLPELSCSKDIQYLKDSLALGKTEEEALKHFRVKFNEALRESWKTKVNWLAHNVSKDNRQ
T1 sequence (P27986 whole entry partner): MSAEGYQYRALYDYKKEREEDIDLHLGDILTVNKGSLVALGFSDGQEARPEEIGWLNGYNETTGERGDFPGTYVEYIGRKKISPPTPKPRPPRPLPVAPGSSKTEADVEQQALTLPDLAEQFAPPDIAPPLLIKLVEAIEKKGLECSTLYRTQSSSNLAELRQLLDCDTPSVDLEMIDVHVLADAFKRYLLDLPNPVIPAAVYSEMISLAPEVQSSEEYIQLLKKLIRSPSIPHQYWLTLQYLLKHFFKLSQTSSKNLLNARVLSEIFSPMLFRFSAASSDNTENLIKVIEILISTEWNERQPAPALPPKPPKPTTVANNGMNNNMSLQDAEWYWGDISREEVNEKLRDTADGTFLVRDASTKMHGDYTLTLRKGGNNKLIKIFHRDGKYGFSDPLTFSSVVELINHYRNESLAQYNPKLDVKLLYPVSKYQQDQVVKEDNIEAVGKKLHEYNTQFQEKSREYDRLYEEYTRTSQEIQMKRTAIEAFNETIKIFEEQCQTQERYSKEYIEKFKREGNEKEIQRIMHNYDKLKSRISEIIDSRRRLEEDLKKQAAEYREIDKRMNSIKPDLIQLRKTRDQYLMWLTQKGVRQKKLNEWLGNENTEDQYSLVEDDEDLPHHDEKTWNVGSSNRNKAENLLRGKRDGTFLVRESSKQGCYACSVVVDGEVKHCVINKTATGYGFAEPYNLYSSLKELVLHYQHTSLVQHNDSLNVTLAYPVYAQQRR
T2 sequence (P42336 whole entry): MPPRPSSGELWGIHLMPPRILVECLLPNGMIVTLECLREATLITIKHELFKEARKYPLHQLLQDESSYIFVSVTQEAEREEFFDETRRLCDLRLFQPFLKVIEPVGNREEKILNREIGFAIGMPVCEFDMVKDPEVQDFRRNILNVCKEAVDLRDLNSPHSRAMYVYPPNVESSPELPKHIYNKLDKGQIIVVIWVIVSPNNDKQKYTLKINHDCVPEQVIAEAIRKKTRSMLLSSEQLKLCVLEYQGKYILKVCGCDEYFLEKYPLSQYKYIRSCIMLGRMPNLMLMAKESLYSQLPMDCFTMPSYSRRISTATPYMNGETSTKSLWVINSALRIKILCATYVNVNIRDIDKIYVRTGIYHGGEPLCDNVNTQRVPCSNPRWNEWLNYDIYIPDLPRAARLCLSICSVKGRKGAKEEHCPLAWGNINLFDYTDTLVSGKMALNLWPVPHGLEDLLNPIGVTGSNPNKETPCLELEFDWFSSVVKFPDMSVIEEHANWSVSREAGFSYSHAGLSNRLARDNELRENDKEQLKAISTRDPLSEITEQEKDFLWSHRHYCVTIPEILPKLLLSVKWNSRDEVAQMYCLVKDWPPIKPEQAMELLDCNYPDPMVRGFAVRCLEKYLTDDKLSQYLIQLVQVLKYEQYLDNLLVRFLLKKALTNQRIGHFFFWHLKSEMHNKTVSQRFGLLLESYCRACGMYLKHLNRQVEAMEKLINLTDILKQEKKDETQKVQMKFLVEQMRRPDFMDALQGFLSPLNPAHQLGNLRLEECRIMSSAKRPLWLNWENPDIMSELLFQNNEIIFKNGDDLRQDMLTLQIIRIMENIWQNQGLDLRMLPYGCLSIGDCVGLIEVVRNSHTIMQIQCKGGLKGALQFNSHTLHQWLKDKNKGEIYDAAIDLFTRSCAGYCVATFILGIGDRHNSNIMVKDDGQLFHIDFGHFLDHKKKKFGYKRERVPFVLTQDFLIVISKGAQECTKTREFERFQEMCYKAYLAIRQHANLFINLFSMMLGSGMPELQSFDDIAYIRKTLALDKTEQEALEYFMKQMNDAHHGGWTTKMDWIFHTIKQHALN
T2 sequence (P27986 whole entry partner): as the sequence (P27986 whole entry partner) above

In the case of `FC(F)c1nc2ccccc2n1-c1cc(N2CCOCC2)nc(NC[C@H]2CC[C@H](N3CCOCC3)CC2)n1` [Example 174], the IC50 in assay [1] came out at 5.9 nM; in assay [2], 2400 nM; in assay [3], 2.4 nM.

With `FC(F)c1nc2ccccc2n1-c1cc(N2CCOCC2)nc(NC[C@H]2CC[C@H](N3CCCCC3)CC2)n1` [Example 177], the figures for the IC50 in assay [1], in assay [2] and in assay [3] were 4.8 nM, more than 3000 nM and 1.1 nM, respectively.

On to `FC(F)c1nc2ccccc2n1-c1cc(NC[C@H]2CC[C@H](N3CCOCC3)CC2)nc(N2CCOCC2)n1` [Example 223], for which the IC50 was 6.2 nM in assay [1], more than 10000 nM in assay [2] and 1.5 nM in assay [3].

As for `COCCN(C1CC1)[C@H]1CC[C@H](CNc2nc(N3CCOCC3)cc(-n3c(C(F)F)nc4ccccc43)n2)CC1` [Example 246], the values for the IC50 in assay [1], in assay [2] and in assay [3] were 5.5 nM, 1700 nM and 2.1 nM, respectively.

Consider `COCCN(CC1CC1)[C@H]1CC[C@H](CNc2nc(N3CCOCC3)cc(-n3c(C(F)F)nc4ccccc43)n2)CC1` [Example 271], for which the IC50 was found to be 2.6 nM in assay [1], 2500 nM in assay [2] and 5.5 nM in assay [3].

For `CN(CCO)[C@H]1CC[C@H](CNc2nc(N3CCOCC3)cc(-n3c(C(F)F)nc4ccccc43)n2)CC1` [Example 274], the values for the IC50 in assay [1], in assay [2] and in assay [3] were 9.7 nM, more than 3000 nM and 5.5 nM, respectively.

For `COCCCN(C)[C@H]1CC[C@H](CNc2nc(N3CCOCC3)cc(-n3c(C(F)F)nc4ccccc43)n2)CC1` [Example 280], the figures for the IC50 in assay [1], in assay [2] and in assay [3] were 4.9 nM, 2500 nM and 3.8 nM, respectively.

On to `CCN(CCOC)[C@H]1CC[C@H](CNc2nc(N3CCOCC3)cc(-n3c(C(F)F)nc4ccccc43)n2)CC1` [Example 363], for which the IC50 in assay [1] was 18 nM; in assay [2], 1400 nM; in assay [3] it was 1.4 nM.

On to `COCCN(CC(C)F)[C@H]1CC[C@H](CNc2nc(N3CCOCC3)cc(-n3c(C(F)F)nc4ccccc43)n2)CC1` (stereo partly drawn) [Example 374], for which the IC50 was 6.4 nM in assay [1], 1200 nM in assay [2] and 2 nM in assay [3].

For the molecule `CN(CC(C)(C)O)[C@H]1CC[C@H](CNc2nc(N3CCOCC3)cc(-n3c(C(F)F)nc4ccccc43)n2)CC1` [Example 375], the figures for the IC50 in assay [1], in assay [2] and in assay [3] were 12 nM, 1600 nM and 1.2 nM, respectively.

With `CCN(CC(C)(C)O)[C@H]1CC[C@H](CNc2nc(N3CCOCC3)cc(-n3c(C(F)F)nc4ccccc43)n2)CC1` [Example 385], the values for the IC50 in assay [1] and in assay [3] were 21 nM and 1.9 nM, respectively.

In the case of `C[C@H]1COCCN1c1cc(-n2c(C(F)F)nc3ccccc32)nc(NC[C@H]2CC[C@H](N(C)CC(C)(C)O)CC2)n1` [Example 393], the IC50 in assay [1] was determined as 7.7 nM; in assay [2] it was 780 nM; in assay [3], 0.7 nM.

On to `CC(C)C(O)CN(C)[C@H]1CC[C@H](CNc2nc(N3CCOCC3)cc(-n3c(C(F)F)nc4ccccc43)n2)CC1` (stereo partly drawn) [Example 398], for which the IC50 in assay [1] was found to be 32 nM; in assay [2], 3400 nM; in assay [3], 2.3 nM.

With `COCC(C)N[C@H]1CC[C@H](CNc2nc(N3CCOCC3)cc(-n3c(C(F)F)nc4ccccc43)n2)CC1` (stereo partly drawn) [Example 399], the IC50 was found to be 22 nM in assay [1], 3200 nM in assay [2] and 3.4 nM in assay [3].

For the molecule `CCN(CC(C)(C)O)[C@H]1CC[C@H](CNc2nc(N3CCOC[C@@H]3C)cc(-n3c(C(F)F)nc4ccccc43)n2)CC1` [Example 403], the IC50 was found to be 4.9 nM in assay [1], 700 nM in assay [2] and 0.82 nM in assay [3].

As for `C#CCN[C@H]1CC[C@H](CNc2nc(N3CCOCC3)cc(-n3c(C(F)F)nc4ccccc43)n2)CC1` [Example 422], the values for the IC50 in assay [1], in assay [2] and in assay [3] were 6 nM, 5800 nM and 4.9 nM, respectively.

As to `CCN(CC)[C@H]1CC[C@H](CNc2nc(N3CCOCC3)cc(-n3c(C(F)F)nc4ccccc43)n2)CC1` [Example 424], the values for the IC50 in assay [1], in assay [2] and in assay [3] were 6 nM, 3600 nM and 1.7 nM, respectively.

Take `C#CCN(CC(C)(C)O)[C@H]1CC[C@H](CNc2nc(N3CCOCC3)cc(-n3c(C(F)F)nc4ccccc43)n2)CC1` [Example 430]: the IC50 is 2.3 nM in assay [1], 2300 nM in assay [2] and 1.8 nM in assay [3].

Regarding `COCC(C)N(C)[C@H]1CC[C@H](CNc2nc(N3CCOCC3)cc(-n3c(C(F)F)nc4ccccc43)n2)CC1` (stereo partly drawn) [Example 434], the figures for the IC50 in assay [1], in assay [2] and in assay [3] were 4.3 nM, 1900 nM and 1.3 nM, respectively.

Consider `CCN(C(C)COC)[C@H]1CC[C@H](CNc2nc(N3CCOCC3)cc(-n3c(C(F)F)nc4ccccc43)n2)CC1` (stereo partly drawn) [Example 435], for which the IC50 in assay [1] came to 2.8 nM; in assay [2], 950 nM; in assay [3], 0.58 nM.

For the molecule `CC#CCN(CC(C)(C)O)[C@H]1CC[C@H](CNc2nc(N3CCOCC3)cc(-n3c(C(F)F)nc4ccccc43)n2)CC1` [Example 437], the IC50 in assay [1] is 7.1 nM; in assay [2] it was 2200 nM; in assay [3], 3.6 nM.

For the molecule `CC(C)(O)CN(CC1CCC1)[C@H]1CC[C@H](CNc2nc(N3CCOCC3)cc(-n3c(C(F)F)nc4ccccc43)n2)CC1` [Example 441], the IC50 in assay [1] came out at 15 nM; in assay [2], 5900 nM; in assay [3] it was 4.2 nM.

With `C=CCN(CC(C)(C)O)[C@H]1CC[C@H](CNc2nc(N3CCOCC3)cc(-n3c(C(F)F)nc4ccccc43)n2)CC1` [Example 442], the IC50 came to 10 nM in assay [1], 2700 nM in assay [2] and 1.2 nM in assay [3].

As for `CC(N(C)[C@H]1CC[C@H](CNc2nc(N3CCOCC3)cc(-n3c(C(F)F)nc4ccccc43)n2)CC1)C(C)(C)O` (stereo partly drawn) [Example 445], the values for the IC50 in assay [1], in assay [2] and in assay [3] were 7 nM, 3400 nM and 0.72 nM, respectively.

Consider `COCC(C)N[C@H]1CC[C@H](CNc2nc(N3CCOC[C@@H]3C)cc(-n3c(C(F)F)nc4ccccc43)n2)CC1` (stereo partly drawn) [Example 446], for which the values for the IC50 in assay [1], in assay [2] and in assay [3] were 8.9 nM, 1700 nM and 1.7 nM, respectively.

Regarding `COCC(C)N(C)[C@H]1CC[C@H](CNc2nc(N3CCOC[C@@H]3C)cc(-n3c(C(F)F)nc4ccccc43)n2)CC1` (stereo partly drawn) [Example 447], the IC50 in assay [1] stood at 5.3 nM; in assay [2] it was 2900 nM; in assay [3], 0.77 nM.

As to `C#CCN(C(C)C(C)(C)O)[C@H]1CC[C@H](CNc2nc(N3CCOCC3)cc(-n3c(C(F)F)nc4ccccc43)n2)CC1` (stereo partly drawn) [Example 481], the IC50 in assay [1] stood at 8.9 nM; in assay [2] it was 1100 nM.

For the molecule `FC[C@@H]1CCCN1[C@H]1CC[C@@H](COc2cc(-n3c(C(F)F)nc4ccccc43)nc(N3CCOCC3)n2)CC1` [Example 483], the IC50 in assay [1] came out at 15 nM; in assay [2], 8700 nM.

Turning to `FC[C@@H]1CCCN1[C@H]1CC[C@@H](CNc2cc(-n3c(C(F)F)nc4ccccc43)nc(N3CCOCC3)n2)CC1` [Example 485], the IC50 was 31 nM in assay [1] and more than 10000 nM in assay [2].

As for `COCCN(C)[C@H]1CC[C@H](CNc2cc(-n3c(C(F)F)nc4ccccc43)nc(N3CCOCC3)n2)CC1` [Example 497], the results for the IC50 in assay [1] and in assay [3] were 16 nM and 2.1 nM, respectively.

`CCN(C(=O)COC)[C@H]1CC[C@H](CNc2nc(N3CCOCC3)cc(-n3c(C(F)F)nc4ccccc43)n2)CC1` [Example 499]: the values for the IC50 in assay [1] and in assay [2] were 11 nM and 1500 nM, respectively.

Values taken from US20120165309A1, “HETERO RING DERIVATIVE” (Astellas Pharma Inc., priority 2009, published 2012).
